Experimental data: patent US10072001B2, “Tank-binding kinase inhibitor compounds” (Gilead Sciences, Inc., priority 2014, dated 2018)

Assays:
IKKε = IKKε (Homo sapiens (Human), UniProt Q14164); test: TR-FRET kinase assay, IKKε; format: biochemical; details: full length recombinant IKKε 0.3 nM, 2x Km ATP, 1 μM peptide, 240 min at 25° C.; geometric mean of minimum four determinations
Source text: Biological Assay for TBK1 and IKKs:

TBK1 = TBK1 (Homo sapiens (Human), UniProt Q9UHD2); test: TR-FRET kinase assay, TBK1; details: read-out: TBK1-IC50; full length recombinant TBK1 2.5 nM, 2x Km ATP, 1 μM peptide, 240 min at 25° C.; geometric mean of minimum four determinations
Sequence of TBK1 (Q9UHD2 whole entry): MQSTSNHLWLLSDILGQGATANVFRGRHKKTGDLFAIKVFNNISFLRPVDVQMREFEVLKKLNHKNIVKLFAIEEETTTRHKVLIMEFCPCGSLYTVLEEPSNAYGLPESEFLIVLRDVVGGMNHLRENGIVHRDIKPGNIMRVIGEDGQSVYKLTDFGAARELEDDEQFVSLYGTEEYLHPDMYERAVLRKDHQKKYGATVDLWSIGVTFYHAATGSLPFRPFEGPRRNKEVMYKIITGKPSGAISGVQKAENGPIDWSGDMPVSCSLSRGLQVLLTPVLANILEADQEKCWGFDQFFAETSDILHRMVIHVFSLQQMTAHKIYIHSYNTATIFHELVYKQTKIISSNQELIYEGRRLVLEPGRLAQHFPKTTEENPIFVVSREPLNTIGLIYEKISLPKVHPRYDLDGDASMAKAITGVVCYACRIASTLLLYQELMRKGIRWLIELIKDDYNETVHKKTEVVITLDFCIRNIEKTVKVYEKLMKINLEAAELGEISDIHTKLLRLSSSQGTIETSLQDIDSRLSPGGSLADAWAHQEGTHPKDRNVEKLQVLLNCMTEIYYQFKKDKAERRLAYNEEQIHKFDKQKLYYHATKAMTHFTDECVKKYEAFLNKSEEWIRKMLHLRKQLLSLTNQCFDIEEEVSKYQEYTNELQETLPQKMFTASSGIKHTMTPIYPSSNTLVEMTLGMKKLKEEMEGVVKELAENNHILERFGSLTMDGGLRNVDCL
Method: Enzymatic activity of IKKε and TBK1 was measured using a homogeneous time resolved fluorescence resonance energy transfer (TR-FRET) assay that monitors enzyme dependent phosphorylation of a biotinylated serine/threonine peptide substrate. […] TBK1 and IKKs were expressed and purified as full length recombinant proteins. Detection reagents for the assay were purchased from Cisbio. […] After an assay reaction time of 240 minutes at 25° C., reactions were terminated with EDTA.
Amount of phosphorylated peptide was determined by the addition of 125 nM streptavidin XL665 and europium cryptate labeled anti-phospho monoclonal antibody and the resulting TR-FRET signal was recorded on an Envision plate reader (Ex: 340 nm; Em: 615/665 nm; 100 μs delay and 200 μs read window). […] All IC50 values represent geometric mean values of a minimum of four determinations.

Sequence of IKKε (Q14164 whole entry): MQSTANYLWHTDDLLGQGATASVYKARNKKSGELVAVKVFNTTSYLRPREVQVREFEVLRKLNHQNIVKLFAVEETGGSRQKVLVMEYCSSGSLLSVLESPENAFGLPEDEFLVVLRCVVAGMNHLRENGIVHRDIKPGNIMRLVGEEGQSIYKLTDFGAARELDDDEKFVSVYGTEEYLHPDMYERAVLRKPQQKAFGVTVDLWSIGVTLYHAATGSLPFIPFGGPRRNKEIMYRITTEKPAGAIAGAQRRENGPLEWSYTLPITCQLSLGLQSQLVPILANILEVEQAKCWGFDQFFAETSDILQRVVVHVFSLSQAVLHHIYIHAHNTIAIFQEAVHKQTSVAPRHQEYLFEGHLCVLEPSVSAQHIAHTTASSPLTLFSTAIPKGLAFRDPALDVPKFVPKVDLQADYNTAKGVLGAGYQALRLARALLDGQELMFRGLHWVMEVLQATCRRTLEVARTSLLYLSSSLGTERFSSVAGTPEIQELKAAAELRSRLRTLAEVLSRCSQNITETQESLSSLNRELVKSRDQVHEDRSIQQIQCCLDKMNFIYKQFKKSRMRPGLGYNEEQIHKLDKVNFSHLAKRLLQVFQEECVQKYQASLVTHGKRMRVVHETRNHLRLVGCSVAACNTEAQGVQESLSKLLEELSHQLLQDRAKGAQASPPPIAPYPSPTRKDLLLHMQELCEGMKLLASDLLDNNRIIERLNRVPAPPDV

Row | SMILES | IC50 (IKKε) [nM] | IC50 (TBK1) [nM]
1 | CC(=O)N1CCC(Oc2ccc(-c3ncnc4[nH]c(-c5ccc(N6CCOCC6)cc5)nc34)cc2C#N)CC1 [Example 249, 2-((1-acetylpiperidin-4-yl)oxy)-5-(8-(4-morpholinophenyl)-9H-purin-6-yl)benzonitrile] | 14.2 | 6.09
2 | N#Cc1cc(-c2ncnc3[nH]c(-c4ccc(N5CCOCC5)nc4)cc23)ccc1OC1CCOCC1 [Example 155, 5-(6-(6-morpholinopyridin-3-yl)-7H-pyrrolo[2,3-d]pyrimidin-4-yl)-2-((tetrahydro-2H-pyran-4-yl)oxy)benzonitrile] |  | 4.39
3 | CC(C)(O)c1ccc(-c2cc3c(-c4ccc(OC5CCN(C(=O)CO)CC5)c(C#N)c4)ncnc3[nH]2)cn1 [Example 132, 2-((1-(2-hydroxyacetyl)piperidin-4-yl)oxy)-5-(6-(6-(2-hydroxypropan-2-yl)pyridin-3-yl)-7H-pyrrolo[2,3-d]pyrimidin-4-yl)benzonitrile] |  | 3.26
4 | COc1cc(-c2cc3c(-c4ccc(O[C@H]5CCN(C(=O)CO)C[C@H]5F)c(C#N)c4)ncnc3[nH]2)ccc1N1CCN(C2COC2)CC1 [Example 145, 2-(((3R,4S)-3-fluoro-1-(2-hydroxyacetyl)piperidin-4-yl)oxy)-5-(6-(3-methoxy-4-(4-(oxetan-3-yl)piperazin-1-yl)phenyl)-7H-pyrrolo[2,3-d]pyrimidin-4-yl)benzonitrile] | 0.481 | 1.05
5 | N#Cc1cc(-c2ncnc3[nH]c(-c4ccc(OCCN5CCCC5)cc4)cc23)ccc1OC1CCN(C(=O)CO)CC1 [Example 229, 2-((1-(2-hydroxyacetyl)piperidin-4-yl)oxy)-5-(6-(4-(2-(pyrrolidin-1-yl)ethoxy)phenyl)-7H-pyrrolo[2,3-d]pyrimidin-4-yl)benzonitrile] | 0.851 | 1.01
6 | N#Cc1cc(-c2ncnc3[nH]c(-c4ccc(N5CCOCC5)cc4)nc23)ccc1OC1CCOCC1 [Example 201, 5-(8-(4-morpholinophenyl)-9H-purin-6-yl)-2-((tetrahydro-2H-pyran-4-yl)oxy)benzonitrile] | 19.7 | 3
7 | N#Cc1cc(-c2ncnc3[nH]c(-c4ccc(N5CCOCC5)cc4)cc23)ccc1OC1CCS(=O)(=O)CC1 [Example 240, 2-((1,1-dioxidotetrahydro-2H-thiopyran-4-yl)oxy)-5-(6-(4-morpholinophenyl)-7H-pyrrolo[2,3-d]pyrimidin-4-yl)benzonitrile] | 33.8 | 3.82
8 | O=C1NCc2cc(-c3ncnc4[nH]c(-c5ccc(N6CCOCC6)cc5)cc34)ccc21 [Example 221, 5-(6-(4-morpholinophenyl)-7H-pyrrolo[2,3-d]pyrimidin-4-yl)isoindolin-1-one] | 1000 | 1000
9 | N#Cc1cc(-c2ncnc3[nH]ccc23)ccc1OC1CCOCC1 [Example 108, 5-(7H-pyrrolo[2,3-d]pyrimidin-4-yl)-2-((tetrahydro-2H-pyran-4-yl)oxy)benzonitrile] | 2230 | 
10 | N#Cc1cc(-c2ccnc3[nH]c(-c4ccc(N5CC6(COC6)C5)cc4)cc23)ccc1OC1CCOCC1 [Example 46, 5-(2-(4-(2-oxa-6-azaspiro[3.3]heptan-6-yl)phenyl)-1H-pyrrolo[2,3-b]pyridin-4-yl)-2-((tetrahydro-2H-pyran-4-yl)oxy)benzonitrile] | 13 | 
11 | COC(=O)c1ccc(-c2cc3c(-c4ccc(OC5CCOCC5)c(C#N)c4)ccnc3[nH]2)cc1 [Example 238, Methyl 4-(4-(3-cyano-4-((tetrahydro-2H-pyran-4-yl)oxy)phenyl)-1H-pyrrolo[2,3-b]pyridin-2-yl)benzoate] | 1000 | 
12 | N#Cc1cc(-c2ncnc3[nH]c(C4=CCC5(CC4)OCCO5)cc23)ccc1OC1CCN(C(=O)CO)CC1 [Example 175, 5-(6-(1,4-dioxaspiro[4.5]dec-7-en-8-yl)-7H-pyrrolo[2,3-d]pyrimidin-4-yl)-2-((1-(2-hydroxyacetyl)piperidin-4-yl)oxy)benzonitrile] | 5.84 | 

The remaining lines, values ahead:

Row | IC50 (IKKε) [nM] | IC50 (TBK1) [nM] | SMILES
13 | 11.1 | 7.98 | CNC(=O)c1cccc(-c2cc3c(-c4ccc(OC5CCOCC5)c(C#N)c4)ccnc3[nH]2)c1 [Example 40, 3-(4-(3-cyano-4-((tetrahydro-2H-pyran-4-yl)oxy)phenyl)-1H-pyrrolo[2,3-b]pyridin-2-yl)-N-methylbenzamide]
14 |  | 52.8 | Cc1ncc(-c2nc3c(-c4ccc(OC5CCOCC5)c(C#N)c4)ncnc3[nH]2)s1 [Example 231, 5-(8-(2-methylthiazol-5-yl)-9H-purin-6-yl)-2-((tetrahydro-2H-pyran-4-yl)oxy)benzonitrile]
15 | 1000 | 1000 | O=C1NCc2cc(-c3cc4c(-c5ccc6c(c5)CNC6=O)ncnc4[nH]3)ccc21 [Example 224, 5,5′-(7H-pyrrolo[2,3-d]pyrimidine-4,6-diyl)bis(isoindolin-1-one)]
16 | 12.7 | 4.5 | N#Cc1cc(-c2ccnc3[nH]c(-c4ccc(N5CCOCC5)cc4)nc23)ccc1O[C@@H]1CCN(C(=O)CO)C1 [Example 196, (R)-2-((1-(2-hydroxyacetyl)pyrrolidin-3-yl)oxy)-5-(2-(4-morpholinophenyl)-3H-imidazo[4,5-b]pyridin-7-yl)benzonitrile]
17 | 151 | 35.8 | N#Cc1cc(-c2ncnc3[nH]c(-c4ccc(N5CCOCC5)c(F)c4)nc23)ccc1OC1CCNCC1 [Example 244, 5-(8-(3-fluoro-4-morpholinophenyl)-9H-purin-6-yl)-2-(piperidin-4-yloxy)benzonitrile]
18 | 5.79 | 5.13 | N#Cc1cc(-c2ncnc3[nH]c(-c4ccc(Cn5ccnc5)cc4)cc23)ccc1OC1CCOCC1 [Example 114, 5-(6-(4-((1H-imidzol-1-yl)methyl)phenyl)-7H-pyrrolo[2,3-d]pyrimidin-4-yl)-2-((tetrahydro-2H-pyran-4-yl)oxy)benzonitrile]
19 | 10.6 | 5.43 | COc1ccc(-c2cc3c(-c4ccc(OC5CCN(C(=O)CO)CC5)c(C#N)c4)ncnc3[nH]2)cn1 [Example 130, 2-((1-(2-hydroxyacetyl)piperidin-4-yl)oxy)-5-(6-(6-methoxypyridin-3-yl)-7H-pyrrolo[2,3-d]pyrimidin-4-yl)benzonitrile]
20 | 8.46 | 1.69 | CC1(C)C(=O)Nc2cc(-c3cc4c(-c5ccc(OC6CCOCC6)c(C#N)c5)ncnc4[nH]3)ccc21 [Example 188, 5-(6-(3,3-dimethyl-2-oxoindolin-6-yl)-7H-pyrrolo[2,3-d]pyrimidin-4-yl)-2-((tetrahydro-2H-pyran-4-yl)oxy)benzonitrile]
21 | 3.72 | 1.9 | N#Cc1cc(-c2ccnc3[nH]c(-c4ccc(N5CCOCC5)cc4)cc23)ccc1OC1CCN(C(=O)CO)CC1 [Example 19, 2-((1-(2-hydroxyacetyl)piperidin-4-yl)oxy)-5-(2-(4-morpholinophenyl)-1H-pyrrolo[2,3-b]pyridin-4-yl)benzonitrile]
22 | 7.99 | 4.36 | N#Cc1cc(-c2ncnc3[nH]c(-c4cnc5c(c4)NCCO5)cc23)ccc1OC1CCOCC1 [Example 189, 5-(6-(2,3-dihydro-1H-pyrido[2,3-b][1,4]oxazin-7-yl)-7H-pyrrolo[2,3-d]pyrimidin-4-yl)-2-((tetrahydro-2H-pyran-4-yl)oxy)benzonitrile]
23 | 64.4 | 6.17 | COc1cc(-c2cc3c(-c4ccc(O[C@H]5CCNC[C@H]5F)c(C#N)c4)ncnc3[nH]2)ccc1N1CCN(C2COC2)CC1 [Example 144, 2-(((3R,4S)-3-fluoropiperidin-4-yl)oxy)-5-(6-(3-methoxy-4-(4-(oxetan-3-yl)piperazin-1-yl)phenyl)-7H-pyrrolo[2,3-d]pyrimidin-4-yl)benzonitrile]
24 | 14.7 | 2.03 | COc1cc(-c2cc3c(-c4ccc(N5CC[C@@H](O)C5)c(C#N)c4)ncnc3[nH]2)ccc1N1CCN(C2COC2)CC1 [Example 142, (R)-2-(3-hydroxypyrrolidin-1-yl)-5-(6-(3-methoxy-4-(4-(oxetan-3-yl)piperazin-1-yl)phenyl)-7H-pyrrolo[2,3-d]pyrimidin-4-yl)benzonitrile]
25 | 9.9 | 4.1 | N#Cc1cc(-c2ccnc3[nH]c(-c4ccc(N5CCOCC5)nc4)cc23)ccc1OC1CCOCC1 [Example 81, 5-(2-(6-morpholinopyridin-3-yl)-1H-pyrrolo[2,3-b]pyridin-4-yl)-2-((tetrahydro-2H-pyran-4-yl)oxy)benzonitrile]
26 |  | 52.8 | N#Cc1cc(-c2ccnc3[nH]c(C#CC4CCOCC4)cc23)ccc1OC1CCOCC1 [Example 35, 5-(2-((tetrahydro-2H-pyran-4-yl)ethynyl)-1H-pyrrolo[2,3-b]pyridin-4-yl)-2-((tetrahydro-2H-pyran-4-yl)oxy)benzonitrile]
27 |  | 0.91 | N#Cc1cc(-c2ncnc3[nH]c(-c4ccc(N5CCN(CC(F)F)CC5)cc4)cc23)ccc1OC1CCN(C(=O)CO)CC1 [Example 264, 5-(6-(4-(4-(2,2-difluoroethyl)piperazin-1-yl)phenyl)-7H-pyrrolo[2,3-d]pyrimidin-4-yl)-2-((1-(2-hydroxyacetyl)piperidin-4-yl)oxy)benzonitrile]
28 |  | 1 | COc1cc(-c2cc3c(-c4ccc(OC5CCOCC5)c(C#N)c4)ncnc3[nH]2)ccc1N1CCOCC1 [Example 136, 5-(6-(3-methoxy-4-morpholinophenyl)-7H-pyrrolo[2,3-d]pyrimidin-4-yl)-2-((tetrahydro-2H-pyran-4-yl)oxy)benzonitrile]
29 | 2.98 |  | N#CCC(=O)N1CCN(c2ccc(-c3cc4c(-c5ccc(OC6CCOCC6)c(C#N)c5)ccnc4[nH]3)cc2)CC1 [Example 57, 5-(2-(4-(4-(2-cyanoacetyl)piperazin-1-yl)phenyl)-1H-pyrrolo[2,3-b]pyridin-4-yl)-2-((tetrahydro-2H-pyran-4-yl)oxy)benzonitrile]
30 |  | 2.84 | N#Cc1cc(-c2cc3c(-c4ccc(OC5CCOCC5)c(C#N)c4)ncnc3[nH]2)ccc1OC1CCOCC1 [Example 223, 5,5′-(7H-pyrrolo[2,3-d]pyrimidine-4,6-diyl)bis(2-((tetrahydro-2H-pyran-4-yl)oxy)benzonitrile)]
